Read-outs that look alike come from different tables or passages of the source.
Legend:
[1] = tested on: Phytophthora capsici; experiment: Activity against Phytophthora capsici, growth inhibition in nutrient broth (microtiter plate); assay type: cell-based
Experimental: Conidia of the fungus from cryogenic storage are directly mixed into nutrient broth (PDB potato dextrose broth). After placing a (DMSO) solution of test compound into a microtiter plate (96-well format), the nutrient broth containing the fungal spores is added. […] Table B4 to B21 gives the mean percent control relative to untreated.

[2] = tested on: Phytophthora infestans; assay type: in vivo
[3] = tested on: Plasmopara viticola; experiment: Field activity against Plasmopara viticola on grapevine; assay type: in vivo; conditions: Table B2; Mandipropamid 93.75 gai/ha; bunches, ten days after sixth application
Description: Merlot grapevines were cultivated in rows with 1 m between plants within the row, and 2 m spaces between rows. Treatment plots were defined with an 8 m^2 vertical area. The trial consisted of three replicates of the treatment list, with the positions of each treatment plot randomised within the replicate.
Test compounds were formulated and applied to the relevant treatment plots, using a backpack sprayer with a flat fan nozzle. The first application was made when the majority of plants were at growth stage BBCH 15 and following applications at 10-14 day intervals through to growth stage BBCH 79.
The first symptoms of the target pathogen Plasmopara viticola were observed between the second and third applications. Plants outside the trial area were inoculated to increase the disease pressure, but infection processes within the trial plots were natural. […]
Ten days after the sixth application, at growth stage BBCH 79, the fruit was assessed for infection by Plasmopara viticola. 50 bunches per plot were assessed, the scores given in table B2 are percent disease control relative to untreated, based on the mean percentage of bunches showing symptoms of infection across all three replicates of a treatment.

[4] = tested on: Phytophthora infestans; assay type: in vivo; conditions: Table B3; Chlorothalonil 1000 gai/ha; leaf area, four days after final application
[5] = Table B20, Iprovalicarb 0.6250 ppm, no A-1.2 rate printed in the row

Mancozeb
% disease control ([1]; Table B4, Mancozeb 0.3125 ppm): 3% | % disease control ([1]; Table B4, Mancozeb 0.6250 ppm): 1% | % disease control ([1]; Table B4, Mancozeb 1.2500 ppm): 0% | % disease control ([1]; Table B4, Mancozeb 2.5000 ppm): 0% | % disease control ([1]; Table B4, Mancozeb 5.0000 ppm): 1% | % disease control ([1]; Table B4, Mancozeb 10.0000 ppm): 1% | % disease control ([1]; Table B4, Mancozeb 20.0000 ppm): 0%

CCC(C)(NC(=O)c1cc(Cl)c(C)c(Cl)c1)C(=O)CCl (stereo not shown) [Zoxamid]
inhibition of growth at 0.0063 ppm ([1]; Phytophthora capsici, Table B14, Zoxamid 0.0063 ppm, read-out: % disease control): 19% | inhibition of growth at 0.0125 ppm ([1]; Phytophthora capsici, Table B14, Zoxamid 0.0125 ppm, read-out: % disease control): 40% | inhibition of growth at 0.025 ppm ([1]; Phytophthora capsici, Table B14, Zoxamid 0.0250 ppm, read-out: % disease control): 48% | inhibition of growth at 0.05 ppm ([1]; Phytophthora capsici, Table B14, Zoxamid 0.0500 ppm, read-out: % disease control): 65%

C[C@@]1(c2ccc(Oc3ccccc3)cc2)OC(=O)N(Nc2ccccc2)C1=O (racemic) [Famoxadone]
inhibition of growth at 0.1563 ppm ([1]; Phytophthora capsici, Table B19, Famoxadone 0.1563 ppm, read-out: % disease control): 16% | inhibition of growth at 0.3125 ppm ([1]; Phytophthora capsici, Table B19, Famoxadone 0.3125 ppm, read-out: % disease control): 16% | inhibition of growth at 0.625 ppm ([1]; Phytophthora capsici, Table B19, Famoxadone 0.6250 ppm, read-out: % disease control): 16% | inhibition of growth at 1.25 ppm ([1]; Phytophthora capsici, Table B19, Famoxadone 1.2500 ppm, read-out: % disease control): 16% | inhibition of growth at 2.5 ppm ([1]; Phytophthora capsici, Table B19, Famoxadone 2.5000 ppm, read-out: % disease control): 16% | inhibition of growth at 5 ppm ([1]; Phytophthora capsici, Table B19, Famoxadone 5.0000 ppm, read-out: % disease control): 25%

O=C(NCc1ncc(C(F)(F)F)cc1Cl)c1c(Cl)cccc1Cl [Fluopicolid]
% disease control ([1]; Table B15, Fluopicolid 0.0625 ppm): 6% | % disease control ([1]; Table B15, Fluopicolid 0.1250 ppm): 59% | % disease control ([1]; Table B15, Fluopicolid 0.2500 ppm): 69% | % disease control ([1]; Table B15, Fluopicolid 0.5000 ppm): 79%

C#CCOc1ccc(CCNC(=O)C(OCC#C)c2ccc(Cl)cc2)cc1OC (stereo not shown) [Mandipropamid]
% disease control ([2]; Table B1.1, Mandipropamid 0.06 ppm): 0% | % disease control ([2]; Table B1.1, Mandipropamid 0.2 ppm): 0% | % disease control ([2]; Table B1.1, Mandipropamid 0.6 ppm): 3% | % disease control relative to untreated [3]: 17.3% | % disease control ([1]; Table B9, Mandipropamid 0.0003 ppm): 16% | % disease control ([1]; Table B9, Mandipropamid 0.0006 ppm): 0% | % disease control ([1]; Table B9, Mandipropamid 0.0012 ppm): 0% | % disease control ([1]; Table B9, Mandipropamid 0.0025 ppm): 17% | % disease control ([1]; Table B9, Mandipropamid 0.0050 ppm): 13% | % disease control ([1]; Table B9, Mandipropamid 0.0100 ppm): 15%

O=[N+]([O-])c1cc(C(F)(F)F)c(Cl)c([N+](=O)[O-])c1Nc1ncc(C(F)(F)F)cc1Cl [Fluazinam]
inhibition of growth at 0.0625 ppm ([1]; Phytophthora capsici, Table B11, Fluazinam 0.0625 ppm, read-out: % disease control): 4% | inhibition of growth at 0.125 ppm ([1]; Phytophthora capsici, Table B11, Fluazinam 0.1250 ppm, read-out: % disease control): 10% | inhibition of growth at 0.25 ppm ([1]; Phytophthora capsici, Table B11, Fluazinam 0.2500 ppm, read-out: % disease control): 0% | inhibition of growth at 0.5 ppm ([1]; Phytophthora capsici, Table B11, Fluazinam 0.5000 ppm, read-out: % disease control): 14%

COCC(=O)N(c1c(C)cccc1C)[C@H](C)C(=O)OC [Mefenoxam]
% disease control ([1]; Table B8, Mefenoxam 0.0031 ppm): 0% | % disease control ([1]; Table B8, Mefenoxam 0.0063 ppm): 13% | % disease control ([1]; Table B8, Mefenoxam 0.0125 ppm): 13% | % disease control ([1]; Table B8, Mefenoxam 0.0250 ppm): 28% | % disease control ([1]; Table B8, Mefenoxam 0.0500 ppm): 42%

Cc1ccc(C(C)NC(=O)[C@@H](NC(=O)OC(C)C)C(C)C)cc1 (stereo partly shown) [Iprovalicarb]
% disease control [1, 5]: 91% | Expected action (Colby) [1, 5]: 66% | % disease control ([1]; Table B20, Iprovalicarb 1.2500 ppm): 18% | % disease control ([1]; Table B20, Iprovalicarb 2.5000 ppm): 0%

CCCCCCCCc1c(CC)nc2ncnn2c1N [Ametoctradin]
% disease control ([1]; Table B17, Ametoctradin 0.0063 ppm): 8% | % disease control ([1]; Table B17, Ametoctradin 0.0125 ppm): 8% | % disease control ([1]; Table B17, Ametoctradin 0.0250 ppm): 13% | % disease control ([1]; Table B17, Ametoctradin 0.0500 ppm): 30%

O=C1c2ccccc2C(=O)N1SC(Cl)(Cl)Cl [Folpet]
% disease control ([2]; Table B1.2, Folpet 20 ppm): 0% | % disease control ([2]; Table B1.2, Folpet 60 ppm): 33% | inhibition of growth at 0.0313 ppm ([1]; Phytophthora capsici, Table B12, Folpet 0.0313 ppm, read-out: % disease control): 17% | inhibition of growth at 0.0625 ppm ([1]; Phytophthora capsici, Table B12, Folpet 0.0625 ppm, read-out: % disease control): 11% | inhibition of growth at 0.125 ppm ([1]; Phytophthora capsici, Table B12, Folpet 0.1250 ppm, read-out: % disease control): 19% | inhibition of growth at 0.25 ppm ([1]; Phytophthora capsici, Table B12, Folpet 0.2500 ppm, read-out: % disease control): 19%

CCNC(=O)NC(=O)/C(C#N)=N/OC [Cymoxanil]
inhibition of growth at 0.0625 ppm ([1]; Phytophthora capsici, Table B13, Cymoxanil 0.0625 ppm, read-out: % disease control): 0% | inhibition of growth at 0.125 ppm ([1]; Phytophthora capsici, Table B13, Cymoxanil 0.1250 ppm, read-out: % disease control): 10% | inhibition of growth at 0.25 ppm ([1]; Phytophthora capsici, Table B13, Cymoxanil 0.2500 ppm, read-out: % disease control): 0% | inhibition of growth at 0.5 ppm ([1]; Phytophthora capsici, Table B13, Cymoxanil 0.5000 ppm, read-out: % disease control): 11% | inhibition of growth at 1 ppm ([1]; Phytophthora capsici, Table B13, Cymoxanil 1.0000 ppm, read-out: % disease control): 8% | inhibition of growth at 2 ppm ([1]; Phytophthora capsici, Table B13, Cymoxanil 2.0000 ppm, read-out: % disease control): 36%

CSC1=N[C@@](C)(c2ccccc2)C(=O)N1Nc1ccccc1 [Fenamidone]
inhibition of growth at 0.0031 ppm ([1]; Phytophthora capsici, Table B18, Fenamidone 0.0031 ppm, read-out: % disease control): 12% | inhibition of growth at 0.0063 ppm ([1]; Phytophthora capsici, Table B18, Fenamidone 0.0063 ppm, read-out: % disease control): 4% | inhibition of growth at 0.0125 ppm ([1]; Phytophthora capsici, Table B18, Fenamidone 0.0125 ppm, read-out: % disease control): 41% | inhibition of growth at 0.025 ppm ([1]; Phytophthora capsici, Table B18, Fenamidone 0.0250 ppm, read-out: % disease control): 54%

CO/C=C(/C(=O)OC)c1ccccc1Oc1cc(Oc2ccccc2C#N)ncn1 [Azoxystrobin]
% disease control ([1]; Table B7, Azoxystrobin 0.0313 ppm): 23% | % disease control ([1]; Table B7, Azoxystrobin 0.0625 ppm): 23% | % disease control ([1]; Table B7, Azoxystrobin 0.1250 ppm): 62%

COc1ccc(C(=CC(=O)N2CCOCC2)c2ccc(Cl)cc2)cc1OC [Dimetomorph]
inhibition of growth at 0.0031 ppm ([1]; Phytophthora capsici, Table B10, Dimetomorph 0.0031 ppm, read-out: % disease control): 0% | inhibition of growth at 0.0063 ppm ([1]; Phytophthora capsici, Table B10, Dimetomorph 0.0063 ppm, read-out: % disease control): 14% | inhibition of growth at 0.0125 ppm ([1]; Phytophthora capsici, Table B10, Dimetomorph 0.0125 ppm, read-out: % disease control): 0% | inhibition of growth at 0.1 ppm ([1]; Phytophthora capsici, Table B10, Dimetomorph 0.1000 ppm, read-out: % disease control): 28%

N#Cc1sc2c(=O)c3ccccc3c(=O)c=2sc1C#N [Dithianon]
inhibition of growth at 0.125 ppm ([1]; Phytophthora capsici, Table B6, Dithianon 0.1250 ppm, read-out: % disease control): 0% | inhibition of growth at 0.25 ppm ([1]; Phytophthora capsici, Table B6, Dithianon 0.2500 ppm, read-out: % disease control): 7% | inhibition of growth at 0.5 ppm ([1]; Phytophthora capsici, Table B6, Dithianon 0.5000 ppm, read-out: % disease control): 8% | inhibition of growth at 1 ppm ([1]; Phytophthora capsici, Table B6, Dithianon 1.0000 ppm, read-out: % disease control): 25%

Cc1c(Br)c2ccc(F)cc2n1S(=O)(=O)c1ncn(S(=O)(=O)N(C)C)n1 [Amisulbrom]
% disease control ([1]; Table B16, Amisulbrom 0.0063 ppm): 5% | % disease control ([1]; Table B16, Amisulbrom 0.0125 ppm): 6% | % disease control ([1]; Table B16, Amisulbrom 0.0500 ppm): 24% | % disease control ([1]; Table B16, Amisulbrom 0.1000 ppm): 35%

N#Cc1c(Cl)c(Cl)c(Cl)c(C#N)c1Cl [Chlorothalonil]
% disease control ([2]; Table B1.3, Chlorothalonil 60 ppm): 6% | % disease control relative to untreated [4]: 4.3% | inhibition of growth at 0.0781 ppm ([1]; Phytophthora capsici, Table B5, Chlorothalonil 0.0781 ppm, read-out: % disease control): 24% | inhibition of growth at 0.1563 ppm ([1]; Phytophthora capsici, Table B5, Chlorothalonil 0.1563 ppm, read-out: % disease control): 24% | inhibition of growth at 0.3125 ppm ([1]; Phytophthora capsici, Table B5, Chlorothalonil 0.3125 ppm, read-out: % disease control): 23% | inhibition of growth at 0.625 ppm ([1]; Phytophthora capsici, Table B5, Chlorothalonil 0.6250 ppm, read-out: % disease control): 64%

CCO[PH](=O)[O-].CCO[PH](=O)[O-].CCO[PH](=O)[O-].[Al+3] [Fosethyl-Al]
% disease control ([1]; Table B21, Fosethyl-Al 0.3125 ppm): 8% | % disease control ([1]; Table B21, Fosethyl-Al 0.6250 ppm): 14% | % disease control ([1]; Table B21, Fosethyl-Al 1.2500 ppm): 14%
